Measurements reported in patent US20090118135A1, “METHODS AND COMPOUNDS FOR REGULATING APOPTOSIS” (The Burnham Institute, priority 2007, published 2009).
“And” between values parts separate entries of the source, which are not always exact repeats. Equal values may be shown once. “Also recorded” adds a separate entry of the source. Where a SMILES comes first, the peptide text is derived from it. [ ]: non-standard residue; d: D form. Ahx = NCCCCCC(=O)O

Assays:
[1] = molecular target: GST-Bcl-2 (Homo sapiens, UniProt P10415); assay: Bcl-2/FITC-TR3 fluorescence polarization competition assay (PBS + Tween-20); details: for displacement of FITC-TR3-r8 from Bcl-2: result in words; for Bcl-2 H Coefficient: Hill coefficient of Bcl-2 dose-response curve
Experimental: For the Chembridge screen, IC50s for each compound with respect to the Bcl-B/FITC-TR3 (In Hepes/β-glycerophophate/tween-20) fluorescence polarization and the Bcl-2/FITC-TR3 (In PBS+tween-20) fluorescence polarization assays were identified.
Fluorescence polarization was then measured using an Analyst HT Multi-Mode Plate Reader (LJL Biosystems, Sunnyvale, Calif.).

[2] = molecular target: T1, GST-Bcl-B (Homo sapiens, UniProt Q9HD36); assay: biochemical
T1 sequence (Q9HD36 1-182 limits assumed): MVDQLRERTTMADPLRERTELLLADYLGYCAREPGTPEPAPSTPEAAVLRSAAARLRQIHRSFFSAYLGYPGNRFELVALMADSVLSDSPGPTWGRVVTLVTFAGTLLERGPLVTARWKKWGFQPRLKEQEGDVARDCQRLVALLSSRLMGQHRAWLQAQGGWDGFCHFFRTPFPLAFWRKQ

[3] = molecular target: T1, GST-Bcl-B; assay: Bcl-B/FITC-TR3-r8 fluorescence polarization competition (displacement) assay, HTS and dose-response; details: for Bcl-B H Coefficient: Hill coefficient of Bcl-B dose-response curve; for Is Hit: LOPAC1280 library primary screen; for F Ratio: LOPAC1280 library, fluorescence intensity normalized to plate negative controls; for inhibition at 0.02 µM: read-out: Result Value (% Inhibition)

Sequence of GST-Bcl-2 (P10415 1-218 limits assumed): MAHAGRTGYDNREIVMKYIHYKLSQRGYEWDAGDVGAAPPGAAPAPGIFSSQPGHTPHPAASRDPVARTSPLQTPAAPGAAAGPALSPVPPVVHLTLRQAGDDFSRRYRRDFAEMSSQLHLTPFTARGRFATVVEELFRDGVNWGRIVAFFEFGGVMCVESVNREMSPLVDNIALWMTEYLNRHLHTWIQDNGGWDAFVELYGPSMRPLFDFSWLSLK

| SMILES | IC50 [2] | Bcl-B H Coefficient [3] | other results |
| --- | --- | --- | --- |
| CN(C)CC[C@H](CSc1ccccc1)Nc1ccc(S(=O)(=O)NC(=O)c2ccc(N3CCN(Cc4ccccc4-c4ccc(Cl)cc4)CC3)cc2)cc1[N+](=O)[O-] [ABT-737, reference compound] |  |  | displacement of FITC-TR3-r8 from Bcl-2 [1]: failed to block FITC-TR3-9-r8 peptide binding to Bcl-2; also recorded: did not effectively displace FITC-TR3-r8 from Bcl-2 |
| Cc1ccc(C(=O)c2coc3c2C(=O)C(=O)C(Cl)=C3Cl)cc1 [Compound 5169132] | 6.17 µM | 1.432 |  |
| O=C1C=CC(=O)C(/C(=C/NCc2ccccc2)[N+](=O)[O-])=C1 [Compound 5261378] | 5.7 µM | 3.214 |  |
| Nc1ccc(S(=O)(=O)O)c2cccc(O)c12 [Compound 5265894] | 1.05 µM | 2.075 |  |
| CN(C)c1ccc(NC(=O)/C=C\C(=O)O)cc1 [Compound 5374579] | 20.4 µM | 2.167 |  |
| O=C1C=CC2=C3Oc4c(ccc5cc(O)ccc45)C(c4ccccc4C(=O)O)C3C=CC2=C1 (centres unmarked) [Compound 5466725] | 1.68 µM | 3.03 |  |
| Cc1ccc2oc3cc(NCCCN(C)C)c4c(=O)c5ccccc5c(=O)c4c3[nH]c2c1 [Compound 5468863] | 0.673 µM | 1.907 |  |
| O=C(O)c1ccc2c(c1)C1C=CCC1C(c1cccc([N+](=O)[O-])c1)N2 (centres unmarked) [Compound 5475298] | 1.75 µM | 1.336 |  |
| COc1ccc(OC)c(C=NNC(=O)C2C=CN(CC(=O)c3ccccc3)C=C2)c1 [Compound 5483976] | 1.35 µM and 1.34 µM | 2.127 |  |
| C(=N\c1ccc(/N=C/c2ccccn2)cc1)/c1ccccc1 [Compound 5491977] | 4.4 µM and 4.39 µM | 1.819 |  |
| COc1ccc(Nc2ccc(N)cc2)cc1 [Compound 5529774] | 7.22 µM | 2.718 |  |
| COc1ccccc1NC(=O)C1=C(C)NC(SCC(=O)c2ccc(Br)cc2)=C(C#N)C1c1ccco1 (centres unmarked) [Compound 5570547] | 6.24 µM | 18.57 |  |
| O=C(O)c1cccc2c1NC(c1ccc([N+](=O)[O-])cc1)C1CC=CC21 (centres unmarked) [Compound 5585430] | 5.41 µM | 1.735 |  |
| O=C1C(=Cc2cn(Cc3ccc(Cl)cc3)c3ccccc23)C(=O)c2ccccc21 [Compound 5603089] | 14.4 µM | 1.917 |  |
| COC(=O)C1=C(C)N(C)C(=O)NC1c1cc2c(cc1[N+](=O)[O-])OCO2 (centres unmarked) [Compound 5607960] | 17.4 µM | 1.821 |  |
| Oc1cccc(/C=N/C2=C(c3ccco3)N=C3C=CC=CC32)c1 (centres unmarked) [Compound 5612880] | 9.1 µM and 9.07 µM | 0.5836 |  |
| OC1=c2ccccc2=C(O)C12N=Nc1nnc(O)n1N2 [Compound 5627952] | 25.2 µM and 23.8 µM | 0.9192 | Bcl-2 H Coefficient [1]: 1.575 |
| O=C(COc1ccc(Cl)cc1Cl)Nc1nnc(-c2ccco2)[nH]1 [Compound 5632817] | 17.9 µM | 0.9962 | Bcl-2 H Coefficient [1]: 1.078 |
| CCOc1ccc(/C=C(/NC(=O)c2ccc(C)cc2)C(=O)NCCO)cc1 [Compound 5650022] | 13.3 µM | 1.428 |  |
| O=C(O)C1Nc2ccc3ccccc3c2C2C=CCC12 (centres unmarked) [Compound 5657743] | 7.15 µM | 3.005 |  |
| Cc1c(Cl)ccc2c1NC(C(=O)O)C1CC=CC21 (centres unmarked) [Compound 5659221] | 5.21 µM | 0.6773 |  |
| COc1cc(C2Nc3ccc4ccccc4c3C3=C2C(=O)CC(C)(C)C3)c(Br)cc1O (centres unmarked) [Compound 5660965] | 13.1 µM | 1.507 |  |
| Oc1ccc(Nc2nc(-c3ccccn3)cs2)cc1 [Compound 5662807] | 3.69 µM | 1.182 | Bcl-2 H Coefficient [1]: 1.241 |
| O=C(O)C1Nc2c(cccc2[N+](=O)[O-])C2C=CCC12 (centres unmarked) [Compound 5665283] | 1.2 µM | 1.829 |  |
| CCSc1nc(NN)c2c3c(sc2n1)CN(C)CC3 [Compound 5683054] | 7.43 µM | 1.332 |  |

| SMILES | IC50 [2] | Bcl-B H Coefficient [3] | other results |
| --- | --- | --- | --- |
| Cn1c(=O)cc2c3c(c(Nc4ccc(C=O)cc4)ccc31)C(=O)c1ccccc1-2 [Compound 5719776] | 8.04 µM | 2.489 |  |
| Cc1cc(C)nc(NC(=N)Nc2ccc(N)cc2)n1 [Compound 5805360] | 5.38 µM | 1.878 |  |
| O=C1NN(c2ccc(F)c(Cl)c2)C(=O)/C1=C\c1ccco1 [Compound 5837788] | 33.4 µM | 1.772 |  |
| O=C(O)C1C2CC=CC2c2cc(Oc3ccccc3)cc3c2N1CC1CC=CC31 (centres unmarked) [Compound 5840196] | 4.13 µM | 2.774 |  |
| O=C(O)c1ccc([N+](=O)[O-])c2c1NC(c1ccccc1)C1CC=CC21 (centres unmarked) [Compound 5853021] | 3.92 µM | 2.481 |  |
| O=C(O)c1cccc(-c2ccc(/C=N/Nc3ccc([N+](=O)[O-])cn3)o2)c1 [Compound 5908920] | 9.64 µM | 0.6738 |  |
| O=C(O)C1Nc2c(C(=O)N3CCCC3)cccc2C2C=CCC12 (centres unmarked) [Compound 5947449] | 4.95 µM | 1.761 |  |
| Cc1ccc(C)n1-c1cc(C(=O)O)cc(C(=O)O)c1 [Compound 5950689] | 0.542 µM | 1.032 | Bcl-2 H Coefficient [1]: 0.6186 |
| COc1cc(N)ccc1-n1c(C)ccc1C [Compound 5953790] | 32.9 µM | 2.719 |  |
| Cc1ccc(C)n1-c1ccc(C(=O)O)c(Cl)c1 [Compound 5956338] | 9.96 µM | 0.9562 | Bcl-2 H Coefficient [1]: 1.653 |
| Cc1ccc(C)n1-c1ccccc1C(=O)O [Compound 5959185] | 0.621 µM | 2.868 |  |
| Cc1ccc(C)n1-c1ccc(OCC(=O)O)cc1 [Compound 5988031] | 8.75 µM | 0.6411 |  |
| CC(=O)c1cc(C#N)c(SCC(=O)c2ccc(O)c(O)c2)nc1C [Compound 6033363] | 11 µM | 2.08 |  |
| Cc1cc(I)c2c(c1)C1C=CCC1C(C(=O)O)N2 (centres unmarked) [Compound 6048134] | 20.7 µM | 1.406 |  |
| O=C(O)c1cccc2c1NC(c1cccc(Cl)c1Cl)C1CC=CC21 (centres unmarked) [Compound 6048905] | 2.57 µM and 2.67 µM | 2.809 |  |
| Nc1n[nH]c2ncc3cc4ccccc4nc3c12 [Compound 6051011] | 3.74 µM and 2.89 µM | 2.36 |  |
| CN1CCN(CN2C(=O)/C(=N\NC(=O)CSc3nc4ccccc4s3)c3ccccc32)CC1 [Compound 6062681] | 12.9 µM | 2.531 |  |
| Cc1ccc(-c2cc(C(=O)O)c3cc(Br)ccc3n2)o1 [Compound 6131498] | 16.5 µM | 1.896 |  |
| O=C(Nc1cc(C(=O)Nc2ccc(S(=O)(=O)O)cc2S(=O)(=O)O)cc(C(=O)Nc2ccc(S(=O)(=O)O)cc2S(=O)(=O)O)c1)Nc1cc(C(=O)Nc2ccc(S(=O)(=O)O)cc2S(=O)(=O)O)cc(C(=O)Nc2ccc(S(=O)(=O)O)cc2S(=O)(=O)O)c1 [N 4784] |  |  | Is Hit [3]: Yes; F Ratio [3]: 1.0398; inhibition at 0.02 µM [3]: 64.7% |
| C[C@H](Cc1ccc(O)c(O)c1)[C@@H](C)Cc1ccc(O)c(O)c1 [N 5023] |  |  | Is Hit [3]: Yes; F Ratio [3]: 0.09564; inhibition at 0.02 µM [3]: 67.5% |
| Cc1nc(/N=N\c2cc(S(=O)(=O)O)c3cc([N+](=O)[O-])cc(S(=O)(=O)O)c3c2)c(COP(=O)(O)O)c(C=O)c1O [P 2738] |  |  | Is Hit [3]: Yes; F Ratio [3]: 0.2636; inhibition at 0.02 µM [3]: 66.6% |
| O=c1c(O)c(-c2ccc(O)c(O)c2)oc2cc(O)cc(O)c12 [Q 0125] |  |  | Is Hit [3]: Yes; F Ratio [3]: 0.1424; inhibition at 0.02 µM [3]: 52% |
| [NH3+][Ru]([NH3+])([NH3+])([NH3+])([NH3+])[O][Ru]([NH3+])([NH3+])([NH3+])([NH3+])[O][Ru]([NH3+])([NH3+])([NH3+])([NH3+])[NH3+] [R 2751] |  |  | Is Hit [3]: Yes; F Ratio [3]: 1.1267 |
| N#C/C(=C\c1ccc(O)c(O)c1)C(=O)c1ccc(O)c(O)c1 [T 7822] |  |  | Is Hit [3]: Yes; F Ratio [3]: 0.1036; inhibition at 0.02 µM [3]: 61.7% |
| CC(=O)N[C@@H](Cc1ccccc1)C(=O)N[C@@H](CO)C(=O)N[C@@H](CCCNC(=N)N)C(=O)N[C@@H](CO)C(=O)N[C@@H](CC(C)C)C(=O)N[C@@H](Cc1c[nH]cn1)C(=O)N[C@@H](CO)C(=O)N[C@@H](CC(C)C)C(=O)N[C@@H](CC(C)C)C(=O)NCC(=O)NCCCCCC(=O)N[C@H](CCCNC(=N)N)C(=O)N[C@H](CCCNC(=N)N)C(=O)N[C@H](CCCNC(=N)N)C(=O)N[C@H](CCCNC(=N)N)C(=O)N[C@H](CCCNC(=N)N)C(=O)N[C@H](CCCNC(=N)N)C(=O)N[C@H](CCCNC(=N)N)C(=O)N[C@H](CCCNC(=N)N)C(N)=O [TR3-r8, reference compound] (Ac-FSRSLHSLLG[Ahx][dR][dR][dR][dR][dR][dR][dR][dR]-NH2) |  |  | displacement of FITC-TR3-r8 from Bcl-2 [1]: effectively competed for binding; EC50 [3]: 0.0828 µM; displacement of FITC-TR3-r8 from GST-Bcl-B ([3]; result in words): displaced FITC-TR3-r8 as expected |
